Measurements reported in ChEMBL document CHEMBL3217502, “Synthesis of dual AChE/5-HT4 receptor multi-target directed ligands” (Medchemcomm, 2012).
pIC50, pKi: −log10 of the molar value.

Tests used:
[1] = molecular target: 5-hydroxytryptamine receptor 4 (Cavia porcellus, UniProt O70528); experiment: Displacement of [3H]-GR113808 from guinea pig 5HT4 receptor by Grossman's method
[2] = molecular target: 5-hydroxytryptamine receptor 4 (Homo sapiens) (UniProt Q13639); experiment: Displacement of [3H]-GR113808 from human 5HT4E receptor at 10^-6 M after 30 mins by liquid scintillation counting
[3] = molecular target: Acetylcholinesterase (Electrophorus electricus, UniProt O42275); experiment: Inhibition of electric eel AChE using acetylthiocholine iodide as substrate preincubated for 5 mins before substrate addition measured for 10 mins by Ellman's method
[4] = molecular target: 5-hydroxytryptamine receptor 4 (Homo sapiens) (UniProt Q13639); experiment: Displacement of [3H]-GR113808 from human 5HT4E receptor at 10^-8 M after 30 mins by liquid scintillation counting

Sequence of Acetylcholinesterase (O42275 whole entry): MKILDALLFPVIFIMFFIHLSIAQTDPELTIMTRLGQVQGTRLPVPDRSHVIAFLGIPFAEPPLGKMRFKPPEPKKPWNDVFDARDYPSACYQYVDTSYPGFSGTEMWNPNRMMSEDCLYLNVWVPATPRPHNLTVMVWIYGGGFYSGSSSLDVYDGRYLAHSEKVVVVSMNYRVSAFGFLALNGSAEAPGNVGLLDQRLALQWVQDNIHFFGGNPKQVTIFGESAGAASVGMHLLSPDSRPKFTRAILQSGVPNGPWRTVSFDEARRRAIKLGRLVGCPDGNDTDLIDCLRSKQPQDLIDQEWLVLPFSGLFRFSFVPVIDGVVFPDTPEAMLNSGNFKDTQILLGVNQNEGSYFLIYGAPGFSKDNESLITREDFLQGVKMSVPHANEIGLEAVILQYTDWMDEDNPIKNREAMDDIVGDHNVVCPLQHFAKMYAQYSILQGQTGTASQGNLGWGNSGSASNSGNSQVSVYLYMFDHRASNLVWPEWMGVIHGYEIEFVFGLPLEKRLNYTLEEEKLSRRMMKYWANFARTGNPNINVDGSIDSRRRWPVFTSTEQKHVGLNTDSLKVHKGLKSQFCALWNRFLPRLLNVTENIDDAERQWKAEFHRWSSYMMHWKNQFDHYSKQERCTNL
Sequence of 5-hydroxytryptamine receptor 4 (Homo sapiens) (Q13639 whole entry): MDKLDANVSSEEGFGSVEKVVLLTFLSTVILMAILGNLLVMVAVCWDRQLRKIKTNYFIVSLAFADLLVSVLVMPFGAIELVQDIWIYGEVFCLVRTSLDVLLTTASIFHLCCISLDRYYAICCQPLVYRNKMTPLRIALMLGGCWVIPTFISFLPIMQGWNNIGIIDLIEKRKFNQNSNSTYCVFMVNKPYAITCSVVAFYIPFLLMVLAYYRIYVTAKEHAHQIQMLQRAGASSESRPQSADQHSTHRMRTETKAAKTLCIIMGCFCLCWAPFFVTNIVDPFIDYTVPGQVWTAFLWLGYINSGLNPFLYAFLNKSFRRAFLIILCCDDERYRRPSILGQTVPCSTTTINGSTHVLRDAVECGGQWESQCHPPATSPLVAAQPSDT
Sequence of 5-hydroxytryptamine receptor 4 (O70528 whole entry): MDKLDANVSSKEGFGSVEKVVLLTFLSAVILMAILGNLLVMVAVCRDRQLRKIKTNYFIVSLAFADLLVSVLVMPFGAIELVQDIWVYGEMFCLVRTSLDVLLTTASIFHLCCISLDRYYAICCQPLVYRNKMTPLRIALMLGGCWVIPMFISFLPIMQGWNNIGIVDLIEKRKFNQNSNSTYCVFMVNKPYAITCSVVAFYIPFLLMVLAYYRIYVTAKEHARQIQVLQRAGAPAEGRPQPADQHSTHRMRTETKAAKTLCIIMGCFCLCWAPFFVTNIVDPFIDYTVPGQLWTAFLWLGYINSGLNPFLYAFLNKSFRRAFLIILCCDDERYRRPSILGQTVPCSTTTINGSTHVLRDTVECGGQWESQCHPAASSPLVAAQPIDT

SMILES	pKi [1]	inhibition [2]	pIC50 [3]	inhibition [4]
Fc1ccc(CN2CCC(COc3nc4ccsc4n4cccc34)CC2)cc1	7.00	–	–	–
c1cc2c(OCC3CCN(CC4CCCC4)CC3)nc3ccsc3n2c1	7.35	100%	6.22	39%
c1cc2c(OCC3CCN(CC4CCC4)CC3)nc3ccsc3n2c1	7.59	–	–	–
COc1ccc(CN2CCC(COc3nc4ccsc4n4cccc34)CC2)cc1	6.67	–	–	–
c1cc2c(OCC3CCN(CC4CC4)CC3)nc3ccsc3n2c1	7.28	–	–	–
Cc1csc2nc(OCC3CCN(Cc4ccccc4)CC3)c3cccn3c12	7.66	98%	6.78	38%
c1ccc(CN2CCC(COc3nc4ccsc4n4cccc34)CC2)cc1	7.28	96%	6.26	30%
Cc1csc2nc(OCC3CCN(CC4CCCCC4)CC3)c3cccn3c12	8.38	99%	7.02	60%
c1cc2c(OCC3CCN(CC4CCCCC4)CC3)nc3ccsc3n2c1	7.10	99%	6.69	22%
c1cc2c(OCC3CCN(Cc4ccncc4)CC3)nc3ccsc3n2c1	6.76	–	–	–
c1ccc(CCN2CCC(COc3nc4ccsc4n4cccc34)CC2)cc1	7.30	–	–	–
c1ccc(CN2CCC(CCOc3nc4ccsc4n4cccc34)CC2)cc1	–	–	6.25	–
CCCN1CCC(COc2nc3scc(C)c3n3cccc23)CC1	8.22	–	5.30	–
Cc1csc2nc(OCC3CCN(CC4CCCC4)CC3)c3cccn3c12	7.67	100%	6.26	78%
c1ccc(CCCN2CCC(COc3nc4ccsc4n4cccc34)CC2)cc1	7.12	–	–	–
